{"source": "patent US11781955B2", "about": "“Photo-controlled removal of targets in vitro and in vivo” (The United States of America, as represented by the …, priority 2014, dated 2023)", "key": {"[1]": {"assay": "IR700 fluorescence after NIR light exposure", "format": "physicochemical", "details": "0.5 μM in DMF or PBS, laser 2-16 J/cm^2", "procedure": "IR700 (0.5 μM) was suspended in DMF or PBS and exposed to NIR light with a laser (690 nm+/−4) at 2, 4, 8 or 16 J/cm^2. The resulting solution was visualized (in an eppendorf tube) with fluorescence at 700 nm. Some samples were not exposed to NIR light."}, "[2]": {"assay": "Solubility of silicon phthalocyanines", "format": "physicochemical", "details": "prior to exposure to NIR light (FIG. 5)"}, "[3]": {"details": "cited from earlier work"}, "[4]": {"format": "physicochemical", "procedure": "The resulting solution was run on a 4-20% polyacrylamide gel, and stained with Comassie blue and visualized with light or fluorescence at 700 nm. Some samples were not exposed to NIR light. […] Some examples contained NaN3 (sodium azide), a reactive oxygen scavenger, or no oxygen (using an argon gas flash for 20 minutes). The resulting solution was run on a […] gel, and stained with Comassie blue and visualized with light or fluorescence at 700 nm. Some samples were not exposed to NIR light. […] Some examples contained excess oxygen (using 100% oxygen gas flash for 20 minutes). The resulting solution was run on a 4-20% SDS-PAGE gel, and stained with Comassie blue and visualized with light or fluorescence at 700 nm. Some samples were not exposed to NIR light."}, "[5]": {"system": "A431-luc-GFP cells", "assay": "Flow cytometry binding to A431-luc-GFP cells with blocking", "details": "6 hr incubation at 37° C., blocking study", "procedure": "(§1) Fluorescence arising from the cells after incubation with APC agents was measured using a flow cytometer (FACS Calibur, BD BioSciences, San Jose, CA, USA) and CellQuest software (BD BioSciences). Cells (1×10^5) were incubated with each APC for 6 hr at 37° C."}, "[6]": {"system": "Balb/3T3-RFP cells", "assay": "Flow cytometry binding to Balb/3T3-RFP cells", "details": "non-EGFR expressing cells", "procedure": "as §1"}, "[7]": {"system": "A431-luc-GFP cells", "assay": "In vitro PIT on 2D culture (PI staining, luciferase activity, GFP fluorescence)", "format": "cell-based", "procedure": "(§2) To detect the antigen specific localization of IR700 conjugates, fluorescence microscopy was performed (IX61 or IX81; Olympus America, Melville, NY, USA). Ten thousand cells were seeded on cover-glass-bottomed dishes and incubated for 24 hr. APC was then added to the culture medium at 10 μg/mL and incubated at 37° C. for 6 hr. The cells were then washed with PBS; Propidium Iodide (PI)(1:2000)(Life Technologies) and Cytox Blue (1:500)(Life Technologies), were used to detect dead cells. These were added to the media 30 min before observation. The cells were then exposed to NIR light and serial images were obtained. The filter was set to detect IR700 fluorescence with a 590-650 nm excitation filter, and a 665-740 nm band pass emission filter.\n(§3) Two hundred thousand A431-luc-GFP cells were seeded into 24 well plates or twenty million cells were seeded onto a 10 cm dish and incubated for 24 hr. Medium was replaced with fresh culture medium containing 10 μg/mL of tra-IR700 which was incubated for 6 hr at 37° C. After washing with PBS, phenol red free culture medium was added. Then, cells were irradiated with a NIR laser, which emits light at 670 to 710 nm wavelength (L690-66-60; Marubeni America Co., Santa Clara, CA, USA). The actual power density (mW/cm2) was measured with an optical power meter (PM 100, Thorlabs, Newton, NJ, USA).\n(§4) The cytotoxic effects of PIT with APC were determined by the luciferase activity and flow cytometric PI staining or GFP. For luciferase activity, 150 μg/mL of D-luciferin-containing media (Gold Biotechnology, St Louis, MO, USA) was administered to PBS-washed cells 1 hr after PIT, and analyzed on a bioluminescence imaging (BLI) system (Photon Imager; Biospace Lab, Paris, France). […]\n(§5) Two hundred thousand cells were seeded on cover-glass-bottomed dishes and incubated for 12 hr. […] The GFP/RFP intensity was evaluated with total pixels with the same threshold in the same field of each spheroid20. […] Fluorescence from treated cells was also measured using a flow cytometer (FACS Calibur)."}, "[8]": {"system": "A431-luc-GFP 3D spheroids", "format": "cell-based", "procedure": "(§6) Spheroids were generated by the hanging drop method in which five thousand cells were suspended in 50 μL medium and then were dispensed into 96 well plates (3D Biomatrix Inc, Ann Arbor, MI, USA) following manufacturer's instructions (Sato et al., Mol. Oncol. 8, 620-632, 2014). Mixed spheroids were made with 5,000 cells of Balb/3T3-RFP and 500 cells of A431-luc-GFP (100:10)). After observation or treatment, spheroids were again incubated with the hanging drop plates containing new media. The volume of the spheroids was calculated with the formula: spheroid volume=4/3 π×radius^3\nas §2\n3D reconstructions of the spheroids were obtained with a confocal laser microscope (LSM5 meta, Carl Zeiss, Jena, Germany) after incubation for 30 min with Hoechst 33342 (1:500)(Life Technologies). Sections of spheroids were first fixed with 3.7% formaldehyde in PBS for 10 min at room temperature followed by embedding with OCT (SAKURA, Tokyo, Japan). Then, they were frozen at −80° C., and sliced at 10 μm with a cryotome (LEICA CM3050 S, Leica microsystems, Wetzlar, Germany). Analysis of the images was performed with ImageJ software (http://rsb.info.nih.gov/ij/)."}, "[9]": {"system": "A431-luc-GFP flank tumor", "assay": "In vivo PIT on flank tumor", "parameters": "species or system mouse", "details": "100 μg, repeated PIT 50 J/cm2 day 1 and 100 J/cm2 day 2", "procedure": "All in vivo procedures were conducted in compliance with the Guide for the Care and Use of Laboratory Animal Resources (1996), US National Research Council, and approved by the local Animal Care and Use Committee. Six- to eight-week-old female homozygote athymic nude mice were purchased from Charles River (NCI-Frederick). During procedures, mice were anesthetized with isoflurane.\nFour million A431-luc-GFP cells were injected subcutaneously in both (right and left symmetrically) flanks of the mice, for the monoculture tumor model. […]\nControls included (1) only NIR light exposure at 50 J/cm2 on day 1 and 100 J/cm2 on day 2 to the right tumor; (2) no treatment for the left tumor. […] Mice were monitored daily, and serial image analysis was performed.\nIn vivo fluorescence images were obtained with a Pearl Imager (LI-COR Bioscience) for detecting IR700 fluorescence, and a Maestro Imager (CRi, Woburn, MA, USA) for GFP/RFP. […] The spectral fluorescence images consist of autofluorescence spectra and the spectra from GFP/RFP (tumor), which were then unmixed, based on the characteristic spectral pattern of GFP, using Maestro software (CRi). Regions of interest (ROIs) were manually drawn either on the flank tumor or over the abdominal region as appropriate to the model and fluorescence intensity was measured. […]"}, "[10]": {"system": "A431-luc-GFP cells", "assay": "PIT on mixed 2D cell culture, target cells", "format": "cell-based", "details": "mixed 2D culture, repeated PIT 2 J/cm2", "procedure": "as §3\nas §4, with “France). For the flow cytometric assay, cells were trypsinized 1 hr after treatment and washed with PBS.” for “France).”\nas §5"}, "[11]": {"system": "Balb/3T3-RFP cells", "assay": "PIT on mixed 2D cell culture, non-target cells", "format": "cell-based", "details": "mixed 2D culture, repeated PIT 2 J/cm2", "procedure": "as §3\nas §4, with “France). For the flow cytometric assay, cells were trypsinized 1 hr after treatment and washed with PBS.” for “France).”\nas §5"}, "[12]": {"system": "A431-luc-GFP cells", "assay": "PIT on mixed 3D spheroid, target cells", "format": "cell-based", "details": "repeated PIT 2 J/cm2", "procedure": "as §6, §2"}, "[13]": {"system": "Balb/3T3-RFP cells", "assay": "PIT on 3D spheroids, non-target cells", "format": "cell-based", "procedure": "as §6, §2"}, "[14]": {"system": "A431-luc-GFP cells", "assay": "In vivo PIT on mixed flank tumor, target cells", "parameters": "species or system mouse", "details": "repeated PIT", "procedure": "(§7) Four million A431-luc-GFP cells were injected subcutaneously in both (right and left symmetrically) flanks of the mice, for the monoculture tumor model. For the mixed tumor model, mixed cells of 4×10^6 A431-luc-GFP cells and 4×10^5 Balb/3T3-RFP cells (100:10) were injected subcutaneously in the both (right and left symmetrically) flanks.\n(§8) Controls included (1) only NIR light exposure at 50 J/cm2 on day 1 and 100 J/cm2 on day 2 to the right tumor; (2) no treatment for the left tumor. These therapies were performed only once at day 7 after cell implantation. Mice were monitored daily, and serial image analysis was performed.\n(§9) In vivo fluorescence images were obtained with a Pearl Imager (LI-COR Bioscience) for detecting IR700 fluorescence, and a Maestro Imager (CRi, Woburn, MA, USA) for GFP/RFP. […] The spectral fluorescence images consist of autofluorescence spectra and the spectra from GFP/RFP (tumor), which were then unmixed, based on the characteristic spectral pattern of GFP, using Maestro software (CRi). Regions of interest (ROIs) were manually drawn either on the flank tumor or over the abdominal region as appropriate to the model and fluorescence intensity was measured.\n(§10) For BLI, D-luciferin (15 mg/mL, 200 μL) was injected intraperitoneally and the mice were analyzed with a Photon Imager for luciferase activity at day 6. […]"}, "[15]": {"system": "Balb/3T3-RFP cells", "assay": "In vivo PIT on mixed flank tumor, non-target cells", "parameters": "species or system mouse", "details": "repeated PIT", "procedure": "as §7, §8, §9, §10"}, "[16]": {"details": "variety of solvents, including water; cited from earlier work"}}, "note": "Read-outs that look alike come from different tables or passages of the source.", "data": [{"molecule": "IRDye® 700DX [IR700]", "values": [{"measurement": "fluorescence after NIR exposure (photobleaching)", "setting": "[1]", "value": "still fluorescent even after exposure to strong NIR light"}, {"measurement": "solubility", "setting": "[2]", "value": "can dissolve in different aqueous and organic solvents"}, {"measurement": "extinction coefficient", "setting": "[3]; at the absorption maximum of 689 nm", "value": 210000, "unit": "M⁻¹ cm⁻¹"}]}, {"molecule": "Oc1cccc(-c2c3nc(c(-c4cccc(O)c4)c4ccc([nH]4)c(-c4cccc(O)c4)c4nc(c(-c5cccc(O)c5)c5ccc2[nH]5)CC4)C=C3)c1", "note": "[Foscan®, meta-tetrahydroxyphenylchlorin]", "values": [{"measurement": "extinction coefficient", "setting": "[3]; at 652 nm", "value": 22000, "unit": "M⁻¹ cm⁻¹"}]}, {"molecule": "Pan-IR700: Panitumumab (Vectibix), anti-human EGFR IgG2 MAb, conjugated to IR700; about 3 IR700 per antibody", "values": [{"measurement": "degradation by NIR in excess oxygen", "setting": "[4]", "value": "less degradation"}, {"measurement": "oxygen dependence of cleavage by NIR", "setting": "[4]; 8 or 16 J/cm^2, no treatment, NaN3 or no oxygen (argon)", "value": "oxygen independent"}, {"measurement": "cleavage of conjugate after NIR light", "setting": "[4]; PBS, LED or laser 690 nm, 2-16 J/cm^2", "value": "broken down or cleaved after exposure to NIR light"}, {"measurement": "binding to cells (FACS)", "setting": "[5]", "value": "Specific binding"}, {"measurement": "binding to cells (FACS)", "setting": "[6]", "value": "no binding"}, {"measurement": "bioluminescence (BLI) and GFP fluorescence intensity after PIT", "setting": "[7]; 2D culture, 1 hr after PIT", "value": "decrease in bioluminescence (BLI) and GFP fluorescence intensity also in a light-dose dependent manner"}, {"measurement": "cell killing (dead PI staining)", "setting": "[7]; 2D culture, NIR light dose series", "value": "killed in a light-dose dependent manner"}, {"measurement": "cell death by microscopy", "setting": "[7]; 6 hr incubation, NIR 2 J/cm2, 1 hr after PIT", "value": "Necrotic cell death was observed"}, {"measurement": "permeation into spheroids (IR700 fluorescence)", "setting": "[8]", "value": "gradually permeated into spheroids from the perimeter"}, {"measurement": "eradication of cells in 3D spheroid", "setting": "[8]; daily repeated PIT", "value": "complete eradication of A431-luc-GFP cells within spheroids"}, {"measurement": "cell death in 3D spheroid after PIT", "setting": "[8]; single PIT, 2 J/cm2", "value": "necrotic cell death in the APC-bound layer of A431-luc-GFP cells"}, {"measurement": "spheroid size after PIT", "setting": "[8]; target 3D spheroid", "value": "clearly decreased in size"}, {"measurement": "GFP signal and luciferase activity of tumor", "setting": "[9]", "value": "disappearance of both GFP signal and luciferase activity"}, {"measurement": "target cell elimination", "setting": "[10]", "value": "complete target cell elimination"}, {"measurement": "effect on non-target cells", "setting": "[11]", "value": "without affecting the non-target cell growth"}, {"measurement": "target cell elimination", "setting": "[12]", "value": "complete target cell elimination from the mixed 3D cell culture"}, {"measurement": "effect on non-target cells", "setting": "[13]; mixed 3D spheroid, repeated PIT 2 J/cm2", "value": "without damaging non-target cells"}, {"measurement": "change of non-target-expressing 3D spheroid with PIT", "setting": "[13]; spheroid of non-target cells only", "value": "no remarkable change"}, {"measurement": "target cell elimination from mixed tumors", "setting": "[14]", "value": "complete elimination of target-expressing cells from mixed tumors in vivo"}, {"measurement": "damage to non-target cells in mixed tumors", "setting": "[15]", "value": "minimal damage to non-target cells"}]}, {"molecule": "C=Cc1c(C)c2cc3nc(c(CC(=O)N[C@@H](CC(=O)[O-])C(=O)[O-])c4[nH]c(cc5nc(cc1[nH]2)C(C)=C5CC)c(C)c4C(=O)[O-])[C@@H](CCC(=O)[O-])[C@@H]3C.[Na+].[Na+].[Na+].[Na+]", "note": "[NPe6/Laserphyrin®, mono-L-aspartylchlorin e6]", "values": [{"measurement": "extinction coefficient", "setting": "[3]; at 654 nm", "value": 40000, "unit": "M⁻¹ cm⁻¹"}]}, {"molecule": "Photofrin®", "values": [{"measurement": "extinction coefficient", "setting": "[3]; at 630 nm", "value": 1200, "unit": "M⁻¹ cm⁻¹"}]}, {"molecule": "O[Si]1(O)n2c3c4ccccc4c2N=C2N=C(N=c4c5ccccc5c(n41)=NC1=NC(=N3)c3ccccc31)c1ccccc12", "note": "[silicon phthalocyanine dihydroxide]", "values": [{"measurement": "solubility", "setting": "[16]", "value": "no measurable solubility"}]}]}
